PubChem BioAssay (NCI)
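Where inhibition never reached the appropriate level, the endpoint shown equals the highest concentration tested. Otherwise, values were interpolated linearly from a five-concentration, 48-hour dose response in 96-well plates. Abbreviation: GI50, concentration required for 50% inhibition of growth. TGI marks complete inhibition of growth.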

Columns and labels:
Experiment in all cases: NCI anticancer screen, dose series, 48 h; in the data active = GI50 below about 0.43 µM; inactive = the rest
[1] = test system: MDA-MB-468 breast
[2] = test system: T-47D breast
[3] = test system: NCI-H23 lung
[4] = test system: NCI-H522 lung
[5] = test system: SF-268 CNS
[6] = test system: MDA-MB-435
[7] = test system: SNB-75 CNS
[8] = test system: DU-145 prostate
[9] = test system: NCI/ADR-RES ovarian
[10] = test system: MALME-3M melanoma
[11] = test system: OVCAR-8 ovarian
[12] = test system: CCRF-CEM leukemia
[13] = test system: HCT-116 colon
[14] = test system: OVCAR-3 ovarian
[15] = test system: MOLT-4 leukemia
[16] = test system: U251 CNS
[17] = test system: M14 melanoma
[18] = test system: OVCAR-5 ovarian
[19] = test system: ACHN renal
[20] = test system: KM12 colon
[21] = test system: HS 578T breast
[22] = test system: UACC-62 melanoma
[23] = test system: UACC-257 melanoma
[24] = test system: HCT-15 colon
[25] = test system: 786-0 renal
[26] = test system: SW-620 colon
[27] = test system: BT-549 breast
[28] = test system: HCC-2998 colon
[29] = test system: EKVX NSCLC
[30] = test system: NCI-H226 lung
[31] = test system: RPMI-8226 leukemia
[32] = test system: LOX IMVI melanoma
[33] = test system: HT29 colon
[34] = test system: RXF 393 renal
[35] = test system: TK-10 renal
[36] = test system: HOP-62 NSCLC
[37] = test system: MCF7 breast
[38] = test system: IGROV1 ovarian
[39] = test system: SR leukemia
[40] = test system: A549 NSCLC
[41] = test system: PC-3 prostate
[42] = test system: HOP-92 NSCLC
[43] = test system: SNB-19 CNS
[44] = test system: NCI-H460 lung
[45] = test system: SK-OV-3 ovarian
[46] = test system: A498 renal
[47] = test system: SF-539 CNS
[48] = test system: SK-MEL-28 melanoma
[49] = test system: CAKI-1 renal
[50] = test system: K-562 leukemia
[51] = test system: SF-295 CNS
[52] = test system: SK-MEL-5 melanoma
[53] = test system: SK-MEL-2 melanoma
[54] = test system: COLO 205 colon
[55] = test system: UO-31 renal
[56] = test system: SN12C renal
[57] = test system: OVCAR-4 ovarian
[58] = test system: MDA-MB-231 breast
[59] = test system: HL-60(TB) leukemia

NS(=O)(=O)c1cccc(Nc2nc(SCC(=O)c3ccc(F)cc3)nc3ccccc23)c1
> 57.7 µM: TGI [2] | TGI [3] | TGI [5] | TGI [6] | TGI [7] | TGI [8] | TGI [9] | TGI [10] | TGI [11] | TGI [12] | TGI [13] | TGI [14] | TGI [16] | TGI [17] | TGI [18] | TGI [19] | TGI [20] | TGI [21] | TGI [22] | TGI [23] | TGI [24] | TGI [25] | TGI [26] | TGI [27] | TGI [28] | TGI [29] | TGI [30] | TGI [31] | TGI [32] | TGI [33] | TGI [34] | TGI [35] | TGI [36] | TGI [37] | TGI [38] | TGI [39] | TGI [40] | TGI [41] | TGI [42] | TGI [43] | TGI [44] | TGI [45] | TGI [46] | TGI [47] | TGI [48] | TGI [49] | TGI [50] | TGI [51] | TGI [53] | TGI [54] | TGI [55] | TGI [56] | TGI [57] | TGI [58]
54.6 µM: TGI [52]
54.3 µM: TGI [4]
42.8 µM: TGI [1]
41.3 µM: TGI [15]
inactive: GI50 [1] 6.23 µM | GI50 [2] 3.18 µM | GI50 [3] 16.5 µM | GI50 [4] 11.7 µM | GI50 [5] 21 µM | GI50 [6] 14.2 µM | GI50 [7] 3.64 µM | GI50 [8] 19.9 µM | GI50 [9] 37.3 µM | GI50 [10] 27.1 µM | GI50 [11] 19.6 µM | GI50 [12] 7.76 µM | GI50 [13] 15.3 µM | GI50 [14] 12.9 µM | GI50 [15] 7.43 µM | GI50 [16] 18.6 µM | GI50 [17] 27.2 µM | GI50 [18] 24.5 µM | GI50 [19] 24.7 µM | GI50 [20] 7.42 µM | GI50 [21] 12.9 µM | GI50 [22] 13.7 µM | GI50 [23] 23.4 µM | GI50 [24] 11.6 µM | GI50 [25] 39.1 µM | GI50 [26] 18.1 µM | GI50 [27] 31.3 µM | GI50 [28] 15.7 µM | GI50 [29] 18.4 µM | GI50 [30] 12.1 µM | GI50 [31] 12.7 µM | GI50 [32] 14.3 µM | GI50 [33] 20 µM | GI50 [34] 16.5 µM | GI50 [35] > 57.7 µM | GI50 [36] 22.2 µM | GI50 [37] 3.81 µM | GI50 [38] 9.82 µM | GI50 [39] 15.9 µM | GI50 [40] 26.8 µM | GI50 [41] 16.8 µM | GI50 [42] 16.4 µM | GI50 [43] 22.3 µM | GI50 [44] 15.1 µM | GI50 [45] 30.4 µM | GI50 [46] > 57.7 µM | GI50 [47] 20 µM | GI50 [48] 20.4 µM | GI50 [49] 13.1 µM | GI50 [50] 13 µM | GI50 [51] 14.6 µM | GI50 [52] 12.9 µM | GI50 [53] 13.5 µM | GI50 [54] 26.8 µM | GI50 [55] 15.5 µM | GI50 [56] 17.6 µM | GI50 [57] 9.34 µM | GI50 [58] 15.9 µM | GI50 [59] 15 µM
48.9 µM: TGI [59]

N#Cc1c(NC(=O)c2ccc(C(F)(F)F)c(Cl)c2)sc2c1CCC(=O)C2
3.08 µM: TGI [6]
2.86 µM: TGI [24] | TGI [57]
7.43 µM: TGI [35]
3.48 µM: TGI [11]
2.99 µM: TGI [14]
1.86 µM: TGI [19]
3.53 µM: TGI [12] | TGI [20] | TGI [33]
2.96 µM: TGI [2]
8.6 µM: TGI [30]
4.92 µM: TGI [29]
3.15 µM: TGI [10]
4.19 µM: TGI [9]
2.66 µM: TGI [22]
3.01 µM: TGI [3]
3.07 µM: TGI [38]
6.26 µM: TGI [15]
2.61 µM: TGI [54]
3.23 µM: TGI [41]
1.49 µM: TGI [1]
4.35 µM: TGI [23] | TGI [43]
10.3 µM: TGI [39]
3.24 µM: TGI [42]
7.66 µM: TGI [40]
7.5 µM: TGI [37]
1.43 µM: TGI [13]
2.74 µM: TGI [56]
3.35 µM: TGI [28]
2.04 µM: TGI [32]
34.9 µM: TGI [46]
5.39 µM: TGI [59]
1.65 µM: TGI [47]
1.95 µM: TGI [34]
3.38 µM: TGI [7]
0.736 µM: TGI [31]
8.9 µM: TGI [44]
18.3 µM: TGI [8]
inactive: GI50 [2] 0.599 µM | GI50 [3] 1.03 µM | GI50 [5] 1.78 µM | GI50 [6] 1.6 µM | GI50 [7] 1.35 µM | GI50 [8] 3.93 µM | GI50 [9] 1.6 µM | GI50 [10] 1.26 µM | GI50 [11] 1.38 µM | GI50 [14] 1.43 µM | GI50 [15] 0.568 µM | GI50 [16] 0.76 µM | GI50 [17] 0.922 µM | GI50 [18] 1.83 µM | GI50 [19] 0.692 µM | GI50 [20] 1.14 µM | GI50 [21] 0.891 µM | GI50 [22] 1.23 µM | GI50 [23] 1.7 µM | GI50 [24] 0.963 µM | GI50 [25] 1.85 µM | GI50 [28] 1.67 µM | GI50 [29] 1.9 µM | GI50 [30] 2.59 µM | GI50 [32] 0.561 µM | GI50 [33] 0.943 µM | GI50 [34] 0.618 µM | GI50 [35] 2.28 µM | GI50 [36] 2.16 µM | GI50 [37] 1.47 µM | GI50 [38] 1.52 µM | GI50 [40] 2.44 µM | GI50 [41] 0.448 µM | GI50 [42] 1.19 µM | GI50 [43] 1.67 µM | GI50 [44] 2.72 µM | GI50 [45] 2.12 µM | GI50 [46] 12.6 µM | GI50 [47] 0.514 µM | GI50 [48] 1.08 µM | GI50 [49] 0.725 µM | GI50 [51] 1.63 µM | GI50 [52] 1.58 µM | GI50 [53] 1.94 µM | GI50 [54] 1.17 µM | GI50 [55] 0.479 µM | GI50 [56] 0.923 µM | GI50 [57] 1.32 µM | GI50 [58] 1.46 µM | GI50 [59] 1.16 µM
3.49 µM: TGI [21]
2.97 µM: TGI [52]
3.87 µM: TGI [18]
5.53 µM: TGI [25]
2.12 µM: TGI [49]
1.71 µM: TGI [55]
5.92 µM: TGI [45]
4.38 µM: TGI [53]
5.37 µM: TGI [5]
2.07 µM: TGI [16]
3 µM: TGI [58]
1.41 µM: TGI [27]
1.79 µM: TGI [26]
active: GI50 [1] 0.416 µM | GI50 [4] 0.346 µM | GI50 [12] 0.334 µM | GI50 [13] 0.371 µM | GI50 [26] 0.4 µM | GI50 [27] 0.365 µM | GI50 [31] 0.214 µM | GI50 [39] 0.399 µM | GI50 [50] 0.336 µM
2.57 µM: TGI [48]
1.35 µM: TGI [4]
2.69 µM: TGI [17]
5.22 µM: TGI [50]
6.05 µM: TGI [36]
3.41 µM: TGI [51]
